# Legend:
# [1] = test system: Human PBMC stimulated with PHA (T cells); assay: Proliferation of T cells evaluation (CellTrace Violet, flow cytometry); format: cell-based; settings: PHA 25 μg/ml, 4 days; FIG. 2
# Protocol: The specific objectives of this assay were to evaluate the degree of cell toxicity (cell viability measured in dead % of T cells) and the level of T cell proliferation under a specific stimulus in the presence of: Human PBMC derived from healthy control donors were stimulated with PHA, 25 μg/ml, in presence or absence of Atorvastatin (AT) in various formulations: irradiated (ATi) or non-irradiated (ATni) Atorvastatin, soluble or toothpaste. […] Later cells were harvested and stained with anti-CD4 antibody conjugated to FITC and the samples were analyzed by flow cytometer Beckman Coulter XL.
# [2] = test system: release of cytokines and neutrophil adhesion to venous endothelium; settings: pretreatment; patients undergoing coronary artery bypass surgery, bypass, or cardiopulmonary graft; cited from earlier work
# [3] = test system: supragingival bacterial plaque and gingival inflammation; settings: clinical results, mouthwash; cited from earlier work
# [4] = test system: 52 bacteria isolated from subgingival plaque; settings: cited from earlier work
# periodontal disease = assay: Concurrent cohort study of systemic statin therapy: periodontal clinical parameters (BOP, PISA); format: in vivo, human; settings: patients taking statins (Atorvastatin 20 mg every 24 hours, systemic); 6 months
# Protocol: A concurrent cohort study was perform, with two groups of patients, some exposed to statin therapy and some not exposed to statin therapy. Patient submitted to statin therapy received Atorvastatin 20 mg, every 24 hours, indicated as part of a preventive cardiologic therapy.
# The eligible patients were those that meet the following inclusion criteria: a) informed consent, b) over 35 years, c) with at least 14 natural teeth in the mouth (excluding third molars), d) have some degree of periodontal disease.
# Measures were taken when starting the study and after 6 months for both groups of patients. The examination included probing depth (PD), clinical attachment level (CAL) and bleeding on probing index (BOP).
# Periodontal probing was performed to each tooth at 6 sites (mesiovestibular, mediovestibular, distovestibular, mesiolingual/palatal, mediolingual/palatal and distolingual/palatal). CAL was defined as the distance from the cementoenamel junction to the pocket bottom. […] BI was determined by assigning a “+” sign to the presence of bleeding on probing in vestibular and/or palatal of the examined tooth and with a “−” sign to the absence of bleeding. […]
# Periodontal Inflamed Surface Area (PISA) was also calculated using data insertion loss, gingival recession and bleeding on probing. […]
# [5] = test system: IL-6, IL-10, C-reactive protein (CRP) in GCF; assay: Cohort study of systemic statin therapy: inflammation biomarkers in gingival crevicular fluid by Elisa; format: in vivo, human
# Text: Measurements at Gingival Crevicular Fluid Level (GCF).
# Upon confirmation of periodontal diagnosis, samplings of GCF were taken by standard procedures. These are described below:
# Two sites were selected from each quadrant which PD is higher. After isolating the tooth with cotton balls, supra-gingival plaque was removed with a curette without touching the gingival margin. Crevicular site was gently dried with air. The GCF was collected with paper cones. The paper points were inserted into the sulcus/pocket until feeling a medium resistance and were left for 40 seconds. Cones contaminated with saliva or blood were excluded. Later the paper cones were placed in a tube. GCF samples were storage at −80° C.
# IL-6, IL-10, and C-reactive protein (CRP) were measured as inflammation biomarkers. Measurements were performed through Elisa test. Measurements were performed at the start of the study and after 6 months for both groups of patients, with and without indication of statins.
smiles,measurement,setting,value
"CC(C)c1c(C(=O)Nc2ccccc2)c(-c2ccccc2)c(-c2ccc(F)cc2)n1CC[C@@H](O)C[C@@H](O)CC(=O)O [Soluble ATi, Atorvastatin]",T cell proliferation (immunomodulatory behavior),[1],reduces immune cell proliferation
CC(C)c1c(C(=O)Nc2ccccc2)c(-c2ccccc2)c(-c2ccc(F)cc2)n1CC[C@@H](O)C[C@@H](O)CC(=O)O [atorvastatin],release of cytokines and neutrophil adhesion to venous endothelium,[2],significantly reduce the release of cytokines and neutrophil adhesion to venous endothelium
[H]/N=C(\N/C(=N/[H])NCCCCCCNC(=N)NC(=N)Nc1ccc(Cl)cc1)Nc1ccc(Cl)cc1 [chlorhexidine],decreased levels of gingival inflammation,[3],45%
same,decreased levels of supragingival bacterial plaque,[3],55%
same,antimicrobial resistance,[4],has not been detected
same,concentration at which all bacteria isolated from patients with periodontitis were inhibited,[4],250 mg/mL
"CC(C)c1c(C(=O)Nc2ccccc2)c(-c2ccccc2)c(-c2ccc(F)cc2)n1CC[C@@H](O)C[C@@H](O)CC(=O)O [statins, Atorvastatin]",reduction of area of periodontal inflammation measured by the PISA index,periodontal disease,58.66%
same,reduction of bleeding on probing index (BOP),periodontal disease,60.89%
same,"levels of IL-6 in GCF, average","[5]; patients consuming statins (Atorvastatin 20 mg every 24 hours), patients without statins 4.8 pg/ml",0.47 pg/mL
same,reduction of IL-6 in GCF,[5]; patients consuming statins vs patients without statins use,90.1%
same,levels of IL-10 in GCF,"[5]; patients taking statins, average in patients not consuming statins 1.23 pg/ml",no IL-10 could be detected
same,reduction of levels of CRP (C-reactive protein) in GCF,[5]; patients taking systemic statins,93%
